The subject of one test is GDNF. Briefly: Blinded postmortem GDNF scoring (DAB stain) of transplanted tissue. Further details: key: (−) no positive staining; (+) slight staining; (++) moderate staining; (+++) extensive staining. It is filed as in vivo, NOD-SCID mice. The following applies: one line per animal; for GDNF Str/CC: striatum/corpus callosum. How it is done: In all experiments, dox solution was maintained in light protection and 4° C. For cell culture, dox (Clontech 631311) was added to culture media at 100 ng/ml. For in vivo work, animals were administered dox (15 μg dox/g weight) every 3-4 days by oral gavage (e.g. 60 μl for a 20 g animal), using a soft-tipped feeding needle (Instech FTP-20-30; Plymouth Meeting, PA) attached to a 1 ml syringe (BD 309659; Franklin Lakes, NJ). Nucleofected iNPCs, which underwent two rounds of FACS for BFP, were transplanted into the striatum (41 of cells at 100,000 cells/μ1 into each hemisphere) of 6-month old NOD-SCID mice (Nod.cb17-Prkdc^scid/J, Jackson Lab #1303; Bar Harbor, ME). Three days before transplantation, a subset of cells was treated with dox. For transplantation, cells were dissociated and diluted to a final concentration of 100,000 cells/μl in conditioned media, and maintained on ice. Animals were anesthetized with isoflurane and placed in a stereotaxic frame. Cells were injected bilaterally relative to bregma at 0.7 mm rostral and +/−2.0 mm lateral. A 5 μl Hamilton microsyringe backfilled with PBS was loaded with 2 μl of cell solution and inserted to a depth of −4.00 mm. The microsyringe was then raised to −3.50 mm and the cell solution was injected at 1 μl/min. After cell injection, the microsyringe was raised to −3.00 mm, held for 2 minutes and slowly withdrawn. Animals were checked daily. Immunostained sections were photographed using a Leica DM200 LED microscope. Images were scored based on stain intensity of DAB GDNF stain by an observer blinded to the experiment conditions (dox vs no dox). Finally, DAB staining, which provides a high sensitivity of protein detection and has effectively tracked human GDNF-expressing NPC transplants, was used to determine the levels and location of GDNF expression.

Test [1] concerns TRE-Bi promoter. The test can be described thus: Flow analysis of GFP induction after extensive cell expansion and freeze. The following applies: 24 hours after adding dox; cells 6 months in culture after nucleofection, two freeze/thaw cycles. It is filed as cell-based, human. How it is done: FIG. 5. IPSC-derived NPCs nucleofected with pB-RTP-Tet-GDNF/memClover-FLuc retain their ability to be induced upon the addition of dox. 83% of BF^+ cells were also GFP^+ (P5 Gate) 24 hours after adding dox to cells that were grown in culture for 6 months after nucleofection. Note: Cells were also exposed to two freeze/thaw cycles and were frozen for a total of 10 months during this period.
To quantitatively assess reporter expression from the TRE-Bi promoter, iNPCs were nucleofected as above, along with an Ef1-Renilla plasmid that constitutively expresses Renilla luciferase for protein normalization. […] To assess the kinetics of the TRE-Bi inducible promoter, firefly luciferase activity was quantified in a live culture of the nucleofected iNPCs grown in the presence of beetle luciferin (FIG. 1F). […] As a clinically-relevant cell product would need to be expanded and banked, the Inventors assessed if the TRE-Bi promoter would remain functionally responsive with an extensive cell expansion and freeze.

For test [2], the system named is TRE-Bi promoter. Briefly: Dual-luciferase assay in nucleofected iNPCs. It is filed as cell-based, human. The following applies: 24-hour dox treatment; iNPCs nucleofected with pB-RTP-Tet-GDNF/memClover-FLuc, pBase and Ef1-Renilla. The procedure:
In all experiments, dox solution was maintained in light protection and 4° C. For cell culture, dox (Clontech 631311) was added to culture media at 100 ng/ml. For in vivo work, animals were administered dox (15 μg dox/g weight) every 3-4 days by oral gavage (e.g. 60 μl for a 20 g animal), using a soft-tipped feeding needle (Instech FTP-20-30; Plymouth Meeting, PA) attached to a 1 ml syringe (BD 309659; Franklin Lakes, NJ). To quantitatively assess reporter expression from the TRE-Bi promoter, iNPCs were nucleofected as above, along with an Ef1-Renilla plasmid that constitutively expresses Renilla luciferase for protein normalization. […] To assess the kinetics of the TRE-Bi inducible promoter, firefly luciferase activity was quantified in a live culture of the nucleofected iNPCs grown in the presence of beetle luciferin (FIG. 1F). […] As a clinically-relevant cell product would need to be expanded and banked, the Inventors assessed if the TRE-Bi promoter would remain functionally responsive with an extensive cell expansion and freeze.

[3] abbreviates: animals that ended trial OFF dox (dox withdrawn).
Setting [4] is: animals that ended trial ON dox.

Values joined by “and” are separate entries in the source; they are usually repeats but may differ in a detail not shown here. Identical values can stand only once.

For the compound `C[C@H]1c2cccc(O)c2C(=O)C2=C(O)[C@]3(O)C(=O)C(C(N)=O)=C(O)[C@@H](N(C)C)[C@@H]3[C@@H](O)[C@@H]21` [dox, doxycycline], in the test with GDNF (setting [3]), the “GDNF Meninges” value was “−” and the “GDNF Str/CC” value was “−”. Also, in the test with GDNF (setting [4]), the “GDNF Meninges” value was “+++ and − (3×) and + (2×) and ++”; the “GDNF Str/CC” value is “− (3×) and ++ (3×) and +”. In the test on TRE-Bi promoter [1], the “BFP+ cells induced to express GFP” value worked out at 83%. In addition, the “increase in firefly luciferase activity (normalized to Renilla)” value in the test with TRE-Bi promoter [2] was approximately 1300 fold.

Values taken from patent publication US12258571B2, “Methods and compositions for inducible expression of neurotrophic factors” (CEDARS-SINAI MEDICAL CENTER, priority 2018, dated 2025).
